Our source for the activation values is patent publication US20190112316A1, “THIAZOLO[3,2-A] PYRIMIDINONE AND OTHER HETEROBICYCLIC PYRIMIDINONE COMPOUNDS FOR USE IN MEDICAL THERAPY” (priority 2015, published 2019).

The target in the assay is T1, glucocerebrosidase (Gcase) (Homo sapiens, UniProt P04062).
T1 construct: micellar solution containing 10 nM GCase and 100 nM saposin C (Enzo ALX-201-262-C050)
T1 sequence (P04062 40-536): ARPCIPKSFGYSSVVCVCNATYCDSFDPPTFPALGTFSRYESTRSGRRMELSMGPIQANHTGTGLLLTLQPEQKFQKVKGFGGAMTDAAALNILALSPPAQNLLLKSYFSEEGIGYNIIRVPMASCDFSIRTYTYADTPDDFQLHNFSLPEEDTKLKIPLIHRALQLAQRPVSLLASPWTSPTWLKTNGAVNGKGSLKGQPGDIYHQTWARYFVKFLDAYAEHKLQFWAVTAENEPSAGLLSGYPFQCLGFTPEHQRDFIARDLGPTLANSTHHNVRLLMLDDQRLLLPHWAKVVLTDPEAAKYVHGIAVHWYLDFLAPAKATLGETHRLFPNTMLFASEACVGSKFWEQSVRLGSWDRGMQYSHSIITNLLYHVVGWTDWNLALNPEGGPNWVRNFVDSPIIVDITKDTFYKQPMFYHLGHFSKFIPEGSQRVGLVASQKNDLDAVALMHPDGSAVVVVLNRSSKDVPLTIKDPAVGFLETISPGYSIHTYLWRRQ
In words: Glucocerebrosidase (Gcase) activation assay, 4-methylumbelliferyl-beta-D-glucopyranoside substrate, with saposin C. In kind it is biochemical. The note with it: for activation at 1 µM: read-out: Percent Gcase Activation 1 μM Test Compound; for activation at 0.1 µM: read-out: Percent Gcase Activation 0.1 μM Test Compound. The method, then: A 484 μL aliquot of a 1.0 mg/mL solution of phosphatidylserine (PS) (Sigma P7769) in chloroform was evaporated under a stream of nitrogen for 1 hour. The lipid film was dissolved over 4 minutes of vigorous vortexing in 40 mL of 176 mM K2HPO4/50 mM citric acid (pH 4.7) containing 7.5 μL of triton X-100, resulting in a mixed micellar preparation with a composition of 0.32 mM triton and 0.37 mol % PS. 4-Methylumbelliferyl-beta-D-glucopyranoside (ACROS-337025000) was dissolved in the micellar solution to a final concentration of 2 mM for use as the reaction substrate.
Test compounds were diluted to the desired concentrations with dimethylsulfoxide (DMSO) from 10 mM stocks, and 0.41 μL of the DMSO compound mixture was added to 100 μL of micellar solution containing 10 nM GCase and 100 nM saposin C (Enzo ALX-201-262-C050). Pre-incubation was allowed to occur for 30 minutes at room temperature, after which the reaction was initiated by combining 25 μL of substrate solution with 25 μL of compound/GCase/saposin mixture. The reaction proceeded for 15 minutes at room temperature and was stopped by adding 150 μL of 1M glycine, pH 12.5. The endpoint of the reaction was monitored by measuring fluorescence intensity (excitation: 365 nm; emission: 440 nm) on a SpectraMax i3 instrument (Molecular Devices). Test compounds were screened at 1.0 and 0.1 μM final concentration, and subsequent 8-point dose response curves were obtained using 3-fold dilutions from a maximum final concentration of 5 μM.

Regarding `CCc1ccc(NC(=O)c2cnc3scc(-c4ccccc4)n3c2=O)cc1`, the activation at 1 µM was over 20%. Take `Cc1csc2ncc(C(=O)Nc3ccc(-c4cocn4)cc3)c(=O)n12`: the activation at 0.1 µM is under 5% and the activation at 1 µM was in the range of 5 to 20%. For `Cc1ccccc1NC(=O)c1cnc2scc(C)n2c1=O`, the activation at 1 µM lay within 5 to 20%. Turning to `Cc1sc2ncc(C(=O)Nc3ccc(C(C)C)cc3)c(=O)n2c1C`, the activation at 1 µM was under 5%.

Turning to `COCC#Cc1ccc(NC(=O)c2cnc3n(c2=O)CCS3)cc1`, the activation at 0.1 µM is 5 to 20% and the activation at 1 µM was in the range of 5 to 20%.

With `Cc1csc2ncc(C(=O)Nc3ccc(Cl)cc3)c(=O)n12`, the activation at 1 µM is over 20%. On the same count and under the same terms, the value for `Cc1ccc(NC(=O)c2cnc3scc(C)n3c2=O)c(C)c1` was over 20%. Regarding `O=C(Nc1ccc(-c2cocn2)cc1)c1cnc2n(c1=O)CCS2`, the activation at 0.1 µM was under 5% and the activation at 1 µM is under 5%.

Take `Cc1cccc2ncc(C(=O)NC3CCOc4ccccc43)c(=O)n12` (stereo not drawn): the activation at 0.1 µM was under 5% and the activation at 1 µM fell in the range of 5 to 20%.

Regarding `Cc1csc2ncc(C(=O)Nc3ccc(F)cc3)c(=O)n12`, the activation at 1 µM was under 5%.

Regarding `Cc1cc(C)cc(NC(=O)c2cnc3sccn3c2=O)c1`, the activation at 1 µM was 5 to 20%.

In the case of `CCCCc1ccc(NC(=O)c2cnc3scc(C)n3c2=O)cc1`, the activation at 0.1 µM is 5 to 20% and the activation at 1 µM was over 20%. `Cc1csc2ncc(C(=O)Nc3ccc4c(c3)OCO4)c(=O)n12`: the activation at 0.1 µM is under 5% and the activation at 1 µM fell in the range of 5 to 20%. Consider `COc1ccc(NC(=O)c2cnc3scc(C)n3c2=O)c(OC)c1`, for which the activation at 1 µM lay within 5 to 20%. Consider `Cc1csc2ncc(C(=O)Nc3ccc(Oc4ccccc4)cc3)c(=O)n12`, for which the activation at 0.1 µM was in the range of 5 to 20% and the activation at 1 µM was over 20%. On to `Cc1ccc(NC(=O)c2cnc3scc(C)n3c2=O)cc1Cl`, for which the activation at 1 µM lay in the range of 5 to 20%. Consider `Cc1ccc(CNC(=O)c2cnc3scc(C)n3c2=O)cc1`, for which the activation at 1 µM fell in the range of 5 to 20%. On the same count and under the same terms, the value for `CCOc1ccccc1NC(=O)c1cnc2scc(C)n2c1=O` was 5 to 20%. On to `O=C(NC1CCOc2ccccc21)c1cnc2n(c1=O)CCS2` (stereo not drawn), for which the activation at 0.1 µM was under 5% and the activation at 1 µM fell in the range of 5 to 20%. The corresponding values for `O=C(Nc1ccc(C2CCCCC2)cc1)c1cnc2n(c1=O)CCS2` are 5 to 20% and over 20%. The corresponding values for `Cc1cccc2ncc(C(=O)NC3CC4CCC3C4)c(=O)n12` (stereo not drawn) are under 5% and 5 to 20%. On the same counts, the results for `CCc1ccc(NC(=O)c2cnc3sccn3c2=O)cc1` are 5 to 20% and over 20%. For `CCC(C)c1ccc(NC(=O)c2cnc3sccn3c2=O)cc1` (stereo not drawn), the activation at 0.1 µM was under 5% and the activation at 1 µM was over 20%.

Turning to `CCCCOC(=O)c1ccc(NC(=O)c2cnc3scc(C)n3c2=O)cc1`, the activation at 1 µM was over 20%.

Regarding `CCc1cccc(NC(=O)c2cnc3scc(C)n3c2=O)c1`, the activation at 1 µM is over 20%. As to `CCCCc1ccc(NC(=O)c2cnc3sc4c(n3c2=O)CCCC4)cc1`, the activation at 1 µM is 5 to 20%. On the same count and under the same terms, with `Cc1csc2ncc(C(=O)Nc3ccc(N(C)C)cc3)c(=O)n12` the figure was 5 to 20%; with `COc1ccc(NC(=O)c2cnc3scc(C)n3c2=O)cc1`, over 20%. As to `CCCCC1CCC(NC(=O)c2cnc3n(c2=O)CCS3)CC1` (stereo not drawn), the activation at 0.1 µM fell in the range of 5 to 20% and the activation at 1 µM was over 20%. Turning to `Cc1cccc2ncc(C(=O)NCCOc3ccccc3)c(=O)n12`, the activation at 0.1 µM is under 5% and the activation at 1 µM lay in the range of 5 to 20%.

Take `CCOc1ccc(NC(=O)c2cnc3scc(C)n3c2=O)cc1`: the activation at 1 µM was in the range of 5 to 20%. Still for that read-out and setting: with `COC(=O)c1ccc(NC(=O)c2cnc3scc(C)n3c2=O)cc1` the figure was 5 to 20%. Same read-out and setting: with `CCCCc1ccc(NC(=O)c2cnc3scc(-c4ccccc4)n3c2=O)cc1` the figure was over 20%.

In the case of `Cc1ccc(NC(=O)c2cnc3sccn3c2=O)cc1C`, the activation at 1 µM is 5 to 20%.
